Here are results for six molecules from patent US20070232492A1, “Herbicidal Composition” (Ishihara Sangyo Kaisha, LTD., priority 2004, published 2007).

Each structure is given as a SMILES string. Where two headings read alike, the source gives them in different places.

A word on the inhibition: it is how much of the control response was suppressed.

Holding throughout (type): in vivo
In assay [1] the test system is barnyardgrass (Echinochloa oryzicola vasing). Nature of the assay: Growth inhibition of barnyardgrass in paddy soil pots, application under submerged condition, visual rating (observed value) and Colby expected value. As to conditions: for inhibition at 500 g/ha: 5 g/a; for inhibition at 1000 g/ha: 10 g/a.
Excerpt: (§1) When the herbicidal activity in a case where two active ingredients are combined, is larger than the simple sum of the respective herbicidal activities of the two active ingredients (the expected activity), it is called a synergistic effect. The activity expected by the combination of two active ingredients can be calculated as follows (Colby S. R., “Weed”, vol. 15, p. 20-22, 1967). E=p+q−(p×q÷100) where p: growth inhibition rate when treated with x (g/a) of herbicide X,
(§2) q: growth inhibition rate when treated with y (g/a) of herbicide Y,
(§3) E: growth inhibition rate expected when treated with x (g/a) of herbicide X and y (g/a) of herbicide Y.
(§4) Namely, when the actual growth inhibition rate (observed value) is larger than the growth inhibition rate by the above calculation (expected value), the activity by the combination can be regarded as showing a synergistic effect.
Paddy field soil was put into a 1/10,000 are pot, and seeds of barnyardgrass (Echinochloa oryzicola vasing) were sown and left to stand under an irrigated condition with a water depth of 3.5 cm. When barnyardgrass reached 2.0 to 2.5 leaf stage, wettable powders of compound A2 and compound (B1.1) were, respectively, diluted with water and applied under submerged condition so that the active ingredients became the prescribed amounts, respectively. The state of growth was visually observed 21 days after application, and the growth inhibition rate (%) evaluated in accordance with the following evaluation standard (observed value) and the growth inhibition rate (%) calculated by the above-mentioned Colby method (expected value) are shown in Table 1.
(§5) Growth inhibition rate (%)=0% (equivalent to the non-treated area) to 100% (complete kill)
(§6) Paddy field soil was put into a 1/10,000 are pot, and seeds of barnyardgrass (Echinochloa oryzicola vasing) were sown and left to stand under an irrigated condition with a water depth of 3.5 cm. When barnyardgrass reached 2.0 to 2.5 leaf stage, wettable powders of compound A2 and compound (B2.1) were, respectively, diluted with water and applied under submerged condition so that the active ingredients became the prescribed amounts, respectively. The state of growth was visually observed 21 days after application, and evaluation and calculation were carried out in the same manner as in the above Test Example 1.
as §6, with “leaf stage, a wettable powder” for “leaf stage, wettable powders”, “a wettable powder of compound” for “stage, wettable powders of compound”, “A2 and an emulsifiable concentrate of compound (B3.1)” for “A2 and compound (B2.1)”, “of compound (B3.1) were, respectively,” for “and compound (B2.1) were, respectively,”
as §6, with “(B4.1)” for “(B2.1)”
Paddy field soil was put into a 1/10,000 are pot, and seeds of barnyardgrass (Echinochloa oryzicola vasing) were sown and left to stand under an irrigated condition with a water depth of 3.5 cm. […]

For assay [2], the system named is flatsedge (Cyperus serotinus). Kind of assay: Growth inhibition of flatsedge (planted tubers) in paddy soil pots, application under submerged condition, visual rating and Colby expected value.
Excerpt: as §1, §2, §3, §4, §5
Paddy field soil was put into a 1/10,000 are pot, and tubers of flatsedge (Cyperus serotinus) were planted and left to stand under an irrigated condition with a water depth of 3.5 cm. When flatsedge reached 2.8 to 3.2 leaf stage, wettable powders of compound A2 and compound (B1.2) were, respectively, diluted with water and applied under submerged condition so that the active ingredients became the prescribed amounts, respectively. The state of growth was visually observed 29 days after application, and evaluation and calculation were carried out in the same manner as in the above Test Example 1.
Paddy field soil was put into a 1/3,000 are pot, and tubers of flatsedge (Cyperus serotinus) were planted and left to stand under an irrigated condition with a water depth of 3.5 cm. When flatsedge reached 4 leaf stage, a wettable powder of compound A2 and an emulsifiable concentrate of compound C4 were, respectively, diluted with water and applied under submerged condition so that the active ingredients became the prescribed amounts, respectively. The state of growth was visually observed 21 days after application, and the growth inhibition rate (%) evaluated in the same manner as in the above Test Example 1 (observed value) and the growth inhibition rate (%) calculated by the above-mentioned Colby method (expected value) are shown in Table 32.
Paddy field soil was put into a 1/10,000 are pot, and tubers of flatsedge (Cyperus serotinus) were planted and left to stand under an irrigated condition with a water depth of 3.5 cm. When flatsedge reached 2.5 to 3.0 leaf stage, wettable powders of compound A2, compound (D2.3) and compound (B4.1) were, respectively, diluted with water and applied under submerged condition so that the active ingredients became the prescribed amounts, respectively. The state of growth was visually observed 30 days after application, and evaluated in the same manner as in the above Test Example 1.
Paddy field soil was put into a 1/10,000 are pot, and tubers of flatsedge (Cyperus serotinus) were planted and left to stand under an irrigated condition with a water depth of 3.5 cm. When flatsedge reached 2.5 to 3.0 leaf stage, wettable powders of compound A2, compound (D2.3) and compound (B6.1) were, respectively, diluted with water and applied under submerged condition so that the active ingredients became the prescribed amounts, respectively. The state of growth was visually observed 30 days after application, and evaluated in the same manner as in the above Test Example 1.
Paddy field soil was put into a 1/10,000 are pot, and tubers of flatsedge (Cyperus serotinus) were planted and left to stand under an irrigated condition with a water depth of 3.5 cm. When flatsedge reached 2.5 to 3.0 leaf stage, wettable powders of compound A2, compound (D2.3) and compound (B8.1) were, respectively, diluted with water and applied under submerged condition so that the active ingredients became the prescribed amounts, respectively. […]

In assay [3] the test system is Japanese bulrush (Scirpus juncoides). Kind of assay: Growth inhibition of Japanese bulrush in paddy soil pots, application under submerged condition, visual rating and Colby expected value. As to conditions: 2 leaf stage, 19 days after application.
Excerpt: as §1, §2, §3, §4, §5
(§7) Paddy field soil was put into a 1/10,000 are pot, and seeds of Japanese bulrush (Scirpus juncoides) were sown and left to stand under an irrigated condition with a water depth of 3.5 cm. When Japanese bulrush reached 2.3 to 2.6 leaf stage, a wettable powder of compound A2 and granules of compound (B7.1) were, respectively, diluted with water and applied under submerged condition so that the active ingredients became the prescribed amounts, respectively. The state of growth was visually observed 10 days after application, and evaluation and calculation were carried out in the same manner as in the above Test Example 1.
as §7, with “an emulsifiable concentrate” for “granules”, “(B3.1)” for “(B7.1)”
Paddy field soil was put into a 1/10,000 are pot, and seeds of Japanese bulrush (Scirpus juncoides) were sown and left to stand under an irrigated condition with a water depth of 3.5 cm. When Japanese bulrush reached 2 leaf stage, wettable powders of compound A2, C2 and C4 and granules of compound C6 were, respectively, diluted with water and applied under submerged condition so that the active ingredients became the prescribed amounts, respectively.
Paddy field soil was put into a 1/10,000 are pot, and seeds of Japanese bulrush (Scirpus juncoides) were sown and left to stand under an irrigated condition with a water depth of 3.5 cm. When Japanese bulrush reached 2 leaf stage, wettable powders of compound A2, C2 and C4 and granules of compound C6 were, respectively, diluted with water and applied under submerged condition so that the active ingredients became the prescribed amounts, respectively. The state of growth was visually observed 19 days after application, and the growth inhibition rate (%) evaluated in the same manner as in the above Test Example 1 (observed value) and the growth inhibition rate (%) calculated by the above-mentioned Colby method (expected value) are shown in Tables 36, 37 and 38.
Paddy field soil was put into a 1/10,000 are pot, and seeds of Japanese bulrush (Scirpus juncoides) were sown and left to stand under an irrigated condition with a water depth of 3.5 cm. When Japanese bulrush reached 3 leaf stage, wettable powders of compound A2 and compound (D2.2) were, respectively, diluted with water and applied under submerged condition so that the active ingredients became the prescribed amounts, respectively. […]

Where [4] appears, read: Echinochloa oryzicola, soil, 336 h, 2.8 to 3.4 leaf stage, 14 days after application, Test Examples 66-72, read-out: Growth inhibition rate (%) Observed.
Where [5] appears, read: Echinochloa oryzicola, soil, 504 h, 2.0 to 2.5 leaf stage, 21 days after application, read-out: Growth inhibition rate (%) Observed.

Take `CCN(CC)C(=O)n1cnc(S(=O)(=O)c2c(C)cc(C)cc2C)n1` [Compound (B9.1), cafenstrole]: the “Growth inhibition rate (%) Observed” value in assay [1] (0.525 g/a, 2.8 to 3.2 leaf stage, 21 days after application) is reported as 2%; in assay [1] (0.788 g/a, 2.1 to 3.2 leaf stage, 21 days after application), 57%; in assay [1] (0.788 g/a, 2.8 to 3.2 leaf stage, 19 days after application, Test Examples 62-65) it was 10%; in assay [1] (1.05 g/a, 2.8 to 3.2 leaf stage, 21 days after application), 10%; in assay [1] (1.58 g/a, 2.8 to 3.2 leaf stage, 19 days after application, Test Examples 62-65), 10%; in assay [2] (2.1 g/a, 2.5 to 3.0 leaf stage, 30 days after application, Test Examples 46-60), 35%.
Take `COc1ccsc1CN(C(=O)CCl)c1c(C)cccc1C` [Compound (B3.2), thenylchlor]: the inhibition at 93.8 g/ha in assay [1] (Echinochloa oryzicola, soil, 504 h, 0.938 g/a, 2.8 to 3.2 leaf stage, 21 days after application, read-out: Growth inhibition rate (%) Observed) was determined as 5%. In addition, the inhibition at 94 g/ha in assay [1] (Echinochloa oryzicola, soil, 504 h, 0.94 g/a, 2.8 to 3.2 leaf stage, 21 days after application, Test Examples 39-43, read-out: Growth inhibition rate (%) Observed) was 0%. In addition, the inhibition at 187.5 g/ha in assay [1] (Echinochloa oryzicola, soil, 504 h, 1.875 g/a, 2.8 to 3.2 leaf stage, 21 days after application, read-out: Growth inhibition rate (%) Observed) came to 27%. Besides, the inhibition at 188 g/ha in assay [1] (Echinochloa oryzicola, soil, 504 h, 1.88 g/a, 2.8 to 3.2 leaf stage, 21 days after application, Test Examples 39-43, read-out: Growth inhibition rate (%) Observed) is 15%. For the same molecule, in assay [2] (Cyperus serotinus, soil, 720 h, 2.5 g/a, 2.5 to 3.0 leaf stage, 30 days after application, Test Examples 46-60, read-out: Growth inhibition rate (%) Observed), the inhibition at 250 g/ha is 35%.
As for `CS(=O)(=O)c1ccc(C(=O)C2=C(Sc3ccccc3)C3CCC(C3)C2=O)c(Cl)c1` (stereo not drawn) [Compound (B4.1), benzobicyclon], the inhibition at 100 g/ha in assay [1] (Echinochloa oryzicola, soil, 504 h, 1 g/a, 2.0 to 2.5 leaf stage, 21 days after application, read-out: Growth inhibition rate (%) Observed) amounted to 13%. Moreover, the inhibition at 200 g/ha in assay [1] (Echinochloa oryzicola, soil, 504 h, 2 g/a, 2.0 to 2.5 leaf stage, 21 days after application, read-out: Growth inhibition rate (%) Observed) is 33%; in assay [2] (Cyperus serotinus, soil, 720 h, 2 g/a, 2.5 to 3.0 leaf stage, 30 days after application, Test Examples 46-60, read-out: Growth inhibition rate (%) Observed), 60%.
For `CCC1(CC2(c3cccc(Cl)c3)CO2)C(=O)c2ccccc2C1=O` (stereo not drawn) [Compound (B10.1), indanofan], the inhibition at 37.5 g/ha in assay [1] (Echinochloa oryzicola, soil, 504 h, 0.375 g/a, 2.8 to 3.2 leaf stage, 21 days after application, read-out: Growth inhibition rate (%) Observed) came out at 0%. In addition, the inhibition at 75 g/ha in assay [1] (Echinochloa oryzicola, soil, 504 h, 0.75 g/a, 2.8 to 3.2 leaf stage, 21 days after application, read-out: Growth inhibition rate (%) Observed) came out at 13%. Besides, the inhibition at 56.3 g/ha in assay [1] (Echinochloa oryzicola, soil, 528 h, 0.563 g/a, 2.1 to 3.2 leaf stage, 22 days after application, read-out: Growth inhibition rate (%) Observed) came to 40%. In assay [2] (Cyperus serotinus, soil, 720 h, 1.5 g/a, 2.5 to 3.0 leaf stage, 30 days after application, Test Examples 46-60, read-out: Growth inhibition rate (%) Observed), the inhibition at 150 g/ha was 25%.
Consider `CC(C)(NC(=O)C(Br)C(C)(C)C)c1ccccc1` (stereo not drawn) [Compound (B6.1), bromobutide], for which the inhibition at 500 g/ha is 10% in assay [1] (setting [4]) and 0% in assay [1] (setting [5]). Further, the inhibition at 1000 g/ha came out at 10% in assay [1] (setting [4]); 10% in assay [1] (setting [5]); 35% in assay [2] (Cyperus serotinus, soil, 720 h, read-out: Growth inhibition rate (%) Observed).
Regarding `CCOC(=O)CCCOc1ccc(Cl)cc1C` [Compound C4, MCPB ethyl], the “Growth inhibition rate (%) Observed” value in assay [3] (0.5 g/a, Test Example 33) turned out to be 10%; in assay [3] (1.0 g/a, Test Example 33), 27%; in assay [3] (1.5 g/a, Test Example 34), 20%; in assay [3] (2.0 g/a, Test Example 33) it was 55%; in assay [3] (10 g/a, Test Example 34), 68%; in assay [2] (2.0 g/a, 4 leaf stage, 21 days after application), 33%. For the same molecule, the “Growth inhibition rate (%) Observed” value in assay [2] (2.4 g/a, 4 leaf stage, 21 days after application) came out at 57%.
